The species named for assay [1] is Canis familiaris. The assay is described as follows: Tested for mean heart rate in dog after ID50 dose. It is filed as functional, Canis lupus familiaris.
The species named for assay [2] is Canis familiaris. The assay is described as follows: Tested for mean blood pressure in dog after ID50 dose. The class given is functional, Canis lupus familiaris.
For assay [3], the system named is Canis familiaris. The assay is described as follows: Tested for mean heart rate in dog before drug administration. It is filed as functional, Canis lupus familiaris.
In assay [4] the test system is Canis familiaris. The assay is described as follows: Tested for mean blood pressure in dog before drug administration. The class given is functional, Canis lupus familiaris.
For another assay, the species on record is Felis catus. The assay is described as follows: Tested for inhibition of cardioaccelerator nerves of cat. Conditions: read-out: ID50 (the source's name). It is filed as functional.
Assay [5] addresses T1, Alpha-1A adrenergic receptor (Homo sapiens) (UniProt P35348).
T1 sequence (whole entry): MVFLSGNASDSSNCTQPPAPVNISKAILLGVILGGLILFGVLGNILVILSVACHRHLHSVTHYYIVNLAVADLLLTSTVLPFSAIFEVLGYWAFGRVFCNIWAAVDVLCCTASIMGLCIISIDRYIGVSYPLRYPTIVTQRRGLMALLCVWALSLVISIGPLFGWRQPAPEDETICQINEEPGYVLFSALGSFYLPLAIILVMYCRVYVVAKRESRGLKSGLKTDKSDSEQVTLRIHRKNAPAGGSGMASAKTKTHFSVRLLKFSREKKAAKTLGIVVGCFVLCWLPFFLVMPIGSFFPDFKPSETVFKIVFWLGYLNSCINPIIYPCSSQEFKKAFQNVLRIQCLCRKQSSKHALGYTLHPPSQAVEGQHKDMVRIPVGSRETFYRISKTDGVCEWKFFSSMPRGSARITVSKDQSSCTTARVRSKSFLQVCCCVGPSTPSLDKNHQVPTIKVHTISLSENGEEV
The assay is described as follows: Inhibitory activity against adrenergic alpha-receptor transmission, its effect being blocked by phentolamine. To be noted: Felis catus.

Each structure is given as a SMILES string.

For the molecule `CN1CCc2cccc3c2[C@H]1Cc1ccc(O)c(O)c1-3` [APOMORPHINE], the Activity was 128.9 beats min-1 in the assay filed under Canis familiaris [1], 92 mmHg in the assay filed under Canis familiaris [2], 139.2 beats min-1 in the assay with Canis familiaris [3] and 109.5 mmHg in the assay with Canis familiaris [4]. Besides, in the assay listed under Felis catus, the ED50 came out at 0.022 µmol/kg.
For the molecule `Br.CCCN1CCCC2c3cc(O)c(O)cc3CCC21` (stereo unspecified), the Activity in the assay filed under Canis familiaris [1] came to 165 beats min-1; in the assay listed under Canis familiaris [2], 82.9 mmHg; with Canis familiaris [3], 175.7 beats min-1; with Canis familiaris [4], 114.9 mmHg. For the same molecule, the ED50 in the assay listed under Felis catus came to 0.26 µmol/kg.
For `Br.CCN1CCCC2c3cc(O)c(O)cc3CCC21` (stereo unspecified), the Activity was 162.8 beats min-1 in the assay listed under Canis familiaris [1], 89.8 mmHg in the assay listed under Canis familiaris [2], 183 beats min-1 in the assay with Canis familiaris [3] and 115 mmHg in the assay on Canis familiaris [4]. Moreover, the ED50 in the assay filed under Felis catus was found to be 0.45 µmol/kg.
For the molecule `Br.CN1CCC[C@@H]2c3cc(O)c(O)cc3CC[C@H]21`, the Activity in the assay listed under Canis familiaris [1] was found to be 160.9 beats min-1; in the assay filed under Canis familiaris [2], 95.6 mmHg; with Canis familiaris [3], 175.4 beats min-1; in the assay with Canis familiaris [4] it was 116.7 mmHg. The ED50 in the assay listed under Felis catus turned out to be 0.0055 µmol/kg.
For `Br.CCCN1CCC[C@@H]2c3cc(O)c(O)cc3CC[C@H]21`, the Activity amounted to 156.9 beats min-1 in the assay filed under Canis familiaris [1], 73.6 mmHg in the assay listed under Canis familiaris [2], 178 beats min-1 in the assay on Canis familiaris [3] and 116.4 mmHg in the assay with Canis familiaris [4]. In addition, the ED50 in the assay listed under Felis catus was 0.0013 µmol/kg.
With `Br.CCN1CCC[C@@H]2c3cc(O)c(O)cc3CC[C@H]21`, the Activity in the assay listed under Canis familiaris [1] turned out to be 161.3 beats min-1; in the assay filed under Canis familiaris [2] it was 90.9 mmHg; in the assay with Canis familiaris [3] it was 176.9 beats min-1; in the assay on Canis familiaris [4], 115.4 mmHg. In addition, in the assay listed under Felis catus, the ED50 was determined as 0.0009 µmol/kg.
On to `Br.CN1CCCC2c3cc(O)c(O)cc3CCC21` (cis isomer), for which the Activity in the assay listed under Canis familiaris [1] worked out at 158.6 beats min-1; in the assay filed under Canis familiaris [2], 95.4 mmHg; in the assay with Canis familiaris [3], 174 beats min-1; with Canis familiaris [4] it was 125.8 mmHg; in assay [5], 2 mg/kg. In addition, the ED50 in the assay listed under Felis catus turned out to be 0.31 µmol/kg.

(Values after ChEMBL document CHEMBL1121518, “Congeners of the beta conformer of dopamine derived from cis- and trans-octahydrobenzo[f]quinoline and trans-octahydrobenzo[g]quinoline” (1980).)
